The results in this text go back to patent US20260257992A1, “AGONISTS OF SMALL HETERODIMER PARTNER FOR CANCER THERAPY” (THE BOARD OF TRUSTEES OF THE UNIVERSITY OF ILLINOIS, priority 2023, published 2026).

The test system of data set [1] is Treg expansion. Briefly: Treg expansion in co-culture with compound-treated BMDMs (macrophages). The class given is cell-based, mouse. Further details: key to Treg expansion macrophages: ✓: using strict cutoffs with respect to DSHN for passing each metric; X: using strict cutoffs with respect to DSHN for passing each metric. The conditions noted are these: pass/fail with respect to DSHN. The protocol:
(§1) Preparation of Bone Marrow-Derived Macrophages (BMDMs) and Dendritic Cells. Bone marrow cells were collected from mouse tibia and femur. Cells were passed through 70-micron cell strainer and subsequently cultured 10 mL complete RPMI media supplemented with 20 ng/mL of recombinant murine M-CSF (576406; BioLegend, 315-02 PeproTech). On day 3, additional 5 ml of the complete media was added. On day 7, media was replaced. BMDMs were harvested on day 10 using cell stripper solution for further experiments. Dendritic cells were isolated from the spleens of wildtype, using mouse CD11c UltraPure MicroBeads (130-125-835; Miltenyi Biotec) according to the manufacturer's instructions) and cultured in RPMI medium supplemented with 10% heat-inactivated charcoal-stripped FBS, 50 μM β-mercaptoethanol, 1% sodium pyruvate, 1% nonessential amino acids, % penicillin/streptomycin, and 1% Glutamax.
(§2) In vitro Treg expansion assays. T cells were cultured in RPMI medium supplemented with 10% heat-inactivated charcoal-stripped FBS, 50 μM β-mercaptoethanol (Gibco), 1% sodium pyruvate, 1% nonessential amino acids, % penicillin/streptomycin, and 1% Glutamax (Gibco). Naïve CD4^+ T cells were isolated from the spleens of wildtype and OT-II, using Naive CD4^+ T Cell Isolation Kit (Miltenyi Biotec according to the manufacturer's instructions). T cells were labeled with the vital dye CFSE (BioLegend) or Cell Trace Violet (ThermoFisher) according to the manufacturer's instructions. For wildtype Treg expansion in presence of antigen presenting cells, naïve CD4^+ T cells were co-cultured with APC at indicated ratio in the presence of 0.5 μg/mL (anti-CD3 BioLegend), 0.5 ng/mL TGFβ (BioLegend) and 0.5 ng/ml IL-2 (BioLegend) for 72 hr at 37° C. For OT-II Treg expansion, OTII naïve CD4^+ T cells from OT-II mice were activated by antigen presentation by culturing BMDMs were primed with 10 μg/mL OVA323-339 (Bachem) and 0.5 μg/mL LPS (Sigma). naïve CD4+ T cells from OTII mice were co-cultured with primed APC at indicated ratio for 72 hrs. After 72 hrs of culture, cells were transferred into V-bottom plates (BD), pelleted by centrifugation and incubated with antibody staining mix containing Ghost Dye™ Red 780 viability dye diluted in PBS for 15 minutes at 4° C. Cell surface antigens were stained for 15 minutes at 4° C. with an antibody staining mix containing Ghost Dye™ Red 780 viability dye diluted in PBS. Cells were fixed and permeabilized with BD Cytofix/Cytoperm™ for 20 minutes at 4° C. Antibodies against intracellular antigens were diluted in 1×BD Perm/Wash™ buffer and cells were stained for 30 minutes at 4° C. Cytometry data were acquired on a LSRII, Fortessa, Symphony A1 (Becton Dickinson, NJ). Foxp3 induction was assessed by expression of FOXP3.

Data set [2] has as its system Treg expansion. Kind of data set: Treg expansion in co-culture with compound-treated splenic CD11C+ dendritic cells. The conditions noted are these: pass/fail with respect to DSHN. The class given is cell-based, mouse. Also noted: key to Treg expansion Dendritic Cells: ✓: using strict cutoffs with respect to DSHN for passing each metric; X: using strict cutoffs with respect to DSHN for passing each metric. The protocol: as §1, §2

Another data set has as its system ABCA1 mRNA. Briefly: ABCA1 mRNA reduction in Raw cells. Also noted: key: ✓: using strict cutoffs with respect to DSHN for passing each metric; X: using strict cutoffs with respect to DSHN for passing each metric. It counts as cell-based. The conditions noted are these: pass/fail with respect to DSHN. The source says:
(§3) Development of a more efficacious NR0B2 agonist. While DSHN was a useful proof-of-concept small molecule, macrophages required high doses and chronic exposure for robust influences on subsequent Tregs expansion. […] Therefore, we synthesized several derivatives of DSHN and screened them using a reporter assay which makes use of the endogenous cholesterol homeostatic feedback loop, where FXR activation upregulates NR0B2, which then inhibits LXR and its normal induction of ABCA1. We then followed this screen with several others with stringent cutoffs: effect on endogenous ABCA1 and IL1β expression, reduction of Treg expansion in either macrophage or DC co-cultures, and low cellular toxicity (FIG. 5A, Table 4).

Another data set has as its system IL1b mRNA. Briefly: IL1b mRNA reduction in Raw cells. It counts as cell-based. Also noted: key: ✓: using strict cutoffs with respect to DSHN for passing each metric; X: using strict cutoffs with respect to DSHN for passing each metric. The conditions noted are these: pass/fail with respect to DSHN.
Description: as §3

Data set [3] can be described thus: Low cellular toxicity screen. It counts as cell-based. Further details: key: ✓: using strict cutoffs with respect to DSHN for passing each metric; X: using strict cutoffs with respect to DSHN for passing each metric. The conditions noted are these: pass/fail with respect to DSHN.
Description: as §3
Resazurin cell viability assay. 20,000 cells were seeded into 96 well f-bottom, black plates (Corning Costar) and cell viability was measured using 100 μL resazurin per well at 0.3 mg/mL (Acros Organics). The fluorescence signal was quantified by plate reader (560 nm excitation/590 nm emission) at 2-3 h.

In the next data set the target is T1, NR0B2 (Homo sapiens, UniProt Q15466).
T1 construct: a reporter assay which makes use of the endogenous cholesterol homeostatic feedback loop; endogenous in cells; host or cells: HepG2
T1 sequence (Q15466 1-257): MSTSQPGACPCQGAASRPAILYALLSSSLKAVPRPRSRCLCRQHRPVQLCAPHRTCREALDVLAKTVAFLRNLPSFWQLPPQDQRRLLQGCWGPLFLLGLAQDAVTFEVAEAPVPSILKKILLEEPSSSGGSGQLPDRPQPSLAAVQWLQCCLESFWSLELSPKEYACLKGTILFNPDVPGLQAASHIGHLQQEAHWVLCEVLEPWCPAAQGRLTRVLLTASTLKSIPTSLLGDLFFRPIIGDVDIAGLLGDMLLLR
Kind of data set: ABCA1 reporter screen to identify NR0B2 agonists (HepG2). The class given is cell-based. Also noted: key: ✓: using strict cutoffs with respect to DSHN for passing each metric; X: using strict cutoffs with respect to DSHN for passing each metric. The conditions noted are these: HepG2, 50 μM test compound, 1 μM GW3965; pass/fail with respect to DSHN.
Description: as §3
Screening to identify NR0B2 agonists. HepG2 cells were co-transfected with ABCA1 renilla reporter plasmid and TK-control firefly luciferase vector at 20:1 using Lipofectamine 3000 reagent according to manufacturer's instructions for 24 hrs. Afterwards, 7000 cells were seeded in to 384 well f-bottom, white plates (Greiner Bio-One). Test compounds were added to the plates in a final working volume of 30 μL (for a final concentration of 50 μM) in presence of DMSO or 1 μM GW3965 and incubated for 20-24 hrs at 37° C. Luciferase activity was measured using the Luc-Pair Duo-Luciferase HT Assay kit (GeneCopoeia, Rockville, MD, USA) by adding luciferase substrates sequentially following manufacturer instructions. Luminescence was measured with 2 s integration times in a microplate reader (BioTek Cytation 5), 15 min after adding each substrate. The addition of reagents to the microplates was timed at each step to match the reading time delays and reading sequence of the microplate reader.

The structures appear in SMILES notation.

With `CCNS(=O)(=O)c1cccc2cc(C(=O)OC)c(OC)cc12` [Compound 5, Methyl 5-(N-ethylsulfamoyl)-3-methoxy-2-naphthoate], in the data set on Treg expansion [1], the Treg expansion macrophages entry is “✓”. Besides, in the data set with Treg expansion [2], the “Treg expansion Dendritic Cells” value is on record as “✓”. For the same compound, the “ABCA1 mRNA reduction (Raw Cells)” value with ABCA1 mRNA is reported as “X”. In addition, the “IL1b mRNA reduction (Raw Cells)” value in the data set on IL1b mRNA is on record as “✓”. In data set [3], the “Low Toxicity” value is on record as “✓”. Also, on NR0B2, the ABCA1 reporter screen result is “X”.

As for `CCNS(=O)(=O)c1ccc2cc(OC)c(C(=O)OC)cc2c1` [Compound 6, Methyl 7-(N-ethylsulfamoyl)-3-methoxy-2-naphthoate], the Treg expansion macrophages result in the data set with Treg expansion [1] is “✓”. For the same compound, the “Treg expansion Dendritic Cells” value in the data set with Treg expansion [2] is “✓”. In addition, in the data set with ABCA1 mRNA, the “ABCA1 mRNA reduction (Raw Cells)” value is given as “X”. Besides, the “IL1b mRNA reduction (Raw Cells)” value in the data set on IL1b mRNA is “X”. Further, in data set [3], the “Low Toxicity” value is recorded as “X”. In addition, on NR0B2, the ABCA1 reporter screen entry is listed as “✓”.

With `COC(=O)c1cc2cccc(S(=O)(=O)N(C)C)c2cc1OC` [Compound 7, Methyl 5-(N,N-dimethylsulfamoyl)-3-methoxy-2-naphthoate], the Treg expansion macrophages result in the data set with Treg expansion [1] is “✓”. In addition, the “Treg expansion Dendritic Cells” value with Treg expansion [2] is on record as “✓”. For the same compound, the “ABCA1 mRNA reduction (Raw Cells)” value in the data set with ABCA1 mRNA is recorded as “X”. Besides, the “IL1b mRNA reduction (Raw Cells)” value in the data set with IL1b mRNA is listed as “✓”. Moreover, the “Low Toxicity” value in data set [3] was “✓”. In addition, the ABCA1 reporter screen entry at NR0B2 was “✓”.

Regarding `COC(=O)c1cc2cc(S(=O)(=O)N(C)C)ccc2cc1OC` [Compound 8, Methyl 7-(N,N-dimethylsulfamoyl)-3-methoxy-2-naphthoate], the Treg expansion macrophages entry in the data set with Treg expansion [1] was “✓”. The “Treg expansion Dendritic Cells” value in the data set with Treg expansion [2] was “✓”. Besides, the “ABCA1 mRNA reduction (Raw Cells)” value in the data set with ABCA1 mRNA is reported as “X”. Moreover, in the data set with IL1b mRNA, the “IL1b mRNA reduction (Raw Cells)” value is recorded as “X”. The “Low Toxicity” value in data set [3] is “✓”. Besides, on NR0B2, the ABCA1 reporter screen entry is reported as “✓”.

`CCN(CC)S(=O)(=O)c1ccc2cc(O)c(C(=O)OC)cc2c1` [Compound 9, Methyl 7-(N,N-diethylsulfamoyl)-3-hydroxy-2-naphthoate]: the Treg expansion macrophages result in the data set with Treg expansion [1] was “✓”. Besides, the “Treg expansion Dendritic Cells” value with Treg expansion [2] was “✓”. Besides, the “ABCA1 mRNA reduction (Raw Cells)” value in the data set with ABCA1 mRNA is on record as “X”. Also, the “IL1b mRNA reduction (Raw Cells)” value with IL1b mRNA is recorded as “✓”. The “Low Toxicity” value in data set [3] was “✓”. The ABCA1 reporter screen result on NR0B2 was “X”.
